Reference: ChEMBL document CHEMBL5150011, “Selection of QPX7831, an Orally Bioavailable Prodrug of Boronic Acid β-Lactamase Inhibitor QPX7728” (J Med Chem, 2021)

Tests used:
[1] = Half life in human serum measured upto 30 min by HPLC analysis; assay type: ADME, cell-free
[2] = Half life in human liver microsomes measured upto 30 min in presence of NADPH by HPLC analysis; assay type: ADME, Microsome
[3] = Acid dissociation constant, pKa of the compound; assay type: physicochemical
[4] = Lipophilicity, logD of compound at pH 7.4; assay type: physicochemical; conditions: buffer
[5] = Solubility of compound in water at pH 7.2 using crystalline sample; assay type: physicochemical
[6] = Solubility of compound in water in presence of 0.5 M PBS at pH 7.0 using crystalline sample; assay type: physicochemical; conditions: water with 0.5 M PBS
[7] = Solubility of the compound in FeSSIF using crystalline sample; assay type: physicochemical
[8] = Solubility of the compound in FaSSIF using crystalline sample; assay type: physicochemical
[9] = Half life in dog liver microsomes measured upto 30 min in presence of NADPH by HPLC analysis; assay type: ADME, Canis lupus familiaris, Microsome
[10] = Half life in rat liver microsomes measured upto 30 min in presence of NADPH by HPLC analysis; assay type: ADME, Microsome
[11] = Oral bioavailability in dog at 10 mg/kg by LC/MS/MS analysis; assay type: ADME, organism-based, Canis lupus familiaris; conditions: in vivo
[12] = Oral bioavailability in rat at 30 mg/kg by LC/MS/MS analysis; assay type: ADME, organism-based; conditions: in vivo
[13] = Oral bioavailability in monkey at 20 mg/kg by LC/MS/MS analysis; assay type: ADME, organism-based, Macaca mulatta; conditions: rhesus monkey, in vivo
[14] = Half life in monkey liver microsomes measured upto 30 min in presence of NADPH by HPLC analysis; assay type: ADME, Macaca mulatta, Microsome; conditions: rhesus monkey
[15] = Oral bioavailability in monkey; assay type: ADME, organism-based, Macaca mulatta; conditions: rhesus monkey, in vivo
[16] = Oral bioavailability in rat; assay type: ADME, organism-based; conditions: in vivo
[17] = Oral bioavailability in dog; assay type: ADME, organism-based, Canis lupus familiaris; conditions: in vivo

SMILES	half-life [1] [min]	half-life [2] [min]	other results
O=C(OCOC(=O)c1c(F)ccc2c1OB(O)[C@@H]1C[C@H]21)OC1CCOCC1	> 30	> 30	–
COCCOC(=O)OCOC(=O)c1c(F)ccc2c1OB(O)[C@@H]1C[C@H]21	> 60	> 30	–
Cc1oc(=O)oc1COC(=O)c1c(F)ccc2c1OB(O)[C@@H]1C[C@H]21	3.7	> 30	–
CC(C)C(=O)OCOC(=O)c1c(F)ccc2c1O[B-](O)(O)[C@@H]1C[C@H]21.[Na+]	–	–	pKa [3]: 4.8; logD [4]: 0.33; solubility [5]: > 100 mg/mL; solubility thermodynamic [6]: 10.6 mg/mL; solubility thermodynamic [7]: > 100 mg/mL; solubility thermodynamic [8]: > 100 mg/mL
O=C(OCOC(=O)c1c(F)ccc2c1OB(O)[C@@H]1C[C@H]21)OC1CCCCC1	> 60	27	–
CCOC(=O)OCOC(=O)c1c(F)ccc2c1OB(O)[C@@H]1C[C@H]21	> 60	> 30	–
CC(=O)N1CCC[C@@H]1C(=O)OCOC(=O)c1c(F)ccc2c1OB(O)[C@@H]1C[C@H]21	> 30	> 30	–
O=C(OCOC(=O)c1c(F)ccc2c1OB(O)[C@@H]1C[C@H]21)OC1COC1	11	> 30	–
CC(=O)OCCOC(=O)OCOC(=O)c1c(F)ccc2c1OB(O)[C@@H]1C[C@H]21	> 30	24	–
O=C(OCOC(=O)C1CCOCC1)c1c(F)ccc2c1OB(O)[C@@H]1C[C@H]21	26	23	–
O=C(OCOC(=O)C1COC1)c1c(F)ccc2c1OB(O)[C@@H]1C[C@H]21	3.9	–	–
O=C(OCOC(=O)C1CC1)c1c(F)ccc2c1OB(O)[C@@H]1C[C@H]21	> 60	14.3	–
CC(C)OC(=O)OCOC(=O)c1c(F)ccc2c1OB(O)[C@@H]1C[C@H]21	–	> 30	–
CC(=O)OCOC(=O)c1c(F)ccc2c1OB(O)[C@@H]1C[C@H]21	> 30	8	half-life [9]: 15 min; half-life [10]: 3 min; bioavailability [11]: 50.1%; bioavailability [12]: 131%; bioavailability [13]: 103%; half-life [14]: 3 min
CCCC(=O)OCOC(=O)c1c(F)ccc2c1OB(O)[C@@H]1C[C@H]21	> 60	28	half-life [9]: 11 min; half-life [10]: 3 min; bioavailability [11]: 55.6%; bioavailability [12]: 145%; bioavailability [13]: 104%; half-life [14]: 2 min
CC(C)C(=O)OCOC(=O)c1c(F)ccc2c1OB(O)[C@@H]1C[C@H]21	> 60	9	half-life [9]: 23 min; half-life [10]: 5 min; bioavailability [11]: 65%; bioavailability [12]: 125%; bioavailability [13]: 106%; half-life [14]: 2 min
CN(C)C(=O)COC(=O)c1c(F)ccc2c1OB(O)[C@@H]1C[C@H]21	> 60	> 30	–
CN(C)C(=O)COC(=O)OCOC(=O)c1c(F)ccc2c1OB(O)[C@@H]1C[C@H]21	> 60	> 30	–
O=C(O)c1c(F)ccc2c1OB(O)[C@@H]1C[C@H]21 [XERUBORBACTAM]	–	–	bioavailability [15]: 20%; bioavailability [16]: 50%; bioavailability [17]: 50%
